This passage reports EC50 results from patent publication US20230045421A1 (priority 2018, published 2023).

One may read the EC50 as the concentration giving half of the maximal effect.

The subject of one test is HBV rcDNA. As to the kind of experiment: HepDE19 assay with bDNA quantitation of HBV rcDNA. Type of test: cell-based, hepatitis B virus. To be noted: HepDE19 assay, inhibition of formation of rcDNA; read-out: DE-19bDNA EC50. A digest of the protocol: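 Compounds, top concentration 25 μM in 8-point duplicate series, were applied to Tet-free HepDE19 cultures for 7 days. Branched-DNA quantitation of HBV rcDNA against untreated wells gave EC50 and EC90 by 4-parameter fit. Viability (CC50) came from ATP luminescence on parallel plates incubated 4 days.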
For `CCCn1cc(C(C)N(C)C(=O)Nc2ccc(F)c(Cl)c2)c2ccccc2c1=O` (single isomer, unassigned) [Compound 186, 3-(3-Chloro-4-fluorophenyl)-1-methyl-1-(1-(1-oxo-2-propyl-1,2-dihydroisoquinolin-4-yl)ethyl)urea], the EC50 worked out at 8.4 µM.
With `CC(c1cnc(OCc2ncn(C)n2)c2ccccc12)N(CCCO)C(=O)Nc1ccc(F)c(Cl)c1` (single isomer, unassigned) [Compound 255, 3-(3-Chloro-4-fluorophenyl)-1-(3-hydroxypropyl)-1-(1-(1-((1-methyl-1H-1,2,4-triazol-3-yl)methoxy)isoquinolin-4-yl)ethyl)urea], the EC50 came out at 5.1 µM.
In the case of `CC(c1c[nH]c(=O)c2ccccc12)N(CCNCC(F)(F)F)C(=O)Nc1ccc(F)c(Cl)c1` (single isomer, unassigned) [Compound 162, 3-(3-Chloro-4-fluorophenyl)-1-(1-(1-oxo-1,2-dihydroisoquinolin-4-yl)ethyl)-1-(2-((2,2,2-trifluoroethyl)amino)ethyl)urea], the EC50 turned out to be 0.58 µM.
Take `CC(c1cnc(N(C)C)c2ccccc12)N(C)C(=O)Nc1ccc(F)c(Cl)c1` (single isomer, unassigned) [Compound 233, 3-(3-Chloro-4-fluorophenyl)-1-(1-(1-(dimethylamino)isoquinolin-4-yl)ethyl)-1-methylurea]: the concentration giving a half-maximal response (EC50) turned out to be 14 µM.
`CC(c1c[nH]c(=O)c2ccccc12)N(CCO)C(=O)Nc1ccc(F)c(Cl)c1` (single isomer, unassigned) [Compound 197, 3-(3-Chloro-4-fluorophenyl)-1-(2-hydroxyethyl)-1-(1-(1-oxo-1,2-dihydroisoquinolin-4-yl)ethyl)urea]: the EC50 worked out at 0.08 µM.
For the compound `CC(NC(=O)Nc1ccc(F)c(Cl)c1)c1c[nH]c(=O)c2ccccc12` (single isomer, unassigned) [Compound 11, 1-(3-Chloro-4-fluorophenyl)-3-(1-(1-oxo-1,2-dihydroisoquinolin-4-yl)ethyl)urea], the EC50 amounted to 4.7 µM.
`CCOCCN(C(=O)Nc1ccc(F)c(Cl)c1)C(C)c1cnc(OC)c2ccccc12` (single isomer, unassigned) [Compound 126, 3-(3-Chloro-4-fluorophenyl)-1-(2-ethoxyethyl)-1-(1-(1-methoxyisoquinolin-4-yl)ethyl)urea]: the EC50 was found to be 0.63 µM.
For the compound `CC(c1c[nH]c(=O)c2ccccc12)N(CC1CCOC1)C(=O)Nc1ccc(F)c(Cl)c1` (stereo not drawn) [Compound 175], the EC50 is 0.85 µM.

The same test, now with this note: HepDE19 assay, inhibition of formation of relaxed circular DNA (rcDNA), bDNA quantitation; read-out: DE-19bDNA EC50.
Turning to `CC(c1c[nH]c(=O)c2ccc(F)cc12)N(CC(CO)CO)C(=O)Nc1ccc(F)c(Cl)c1` (single isomer, unassigned) [Compound 296, 3-(3-Chloro-4-fluorophenyl)-1-(1-(6-fluoro-1-oxo-1,2-dihydroisoquinolin-4-yl)ethyl)-1-(3-hydroxy-2-(hydroxymethyl)propyl)urea], the EC50 was found to be 0.04 µM.
On to `CC(c1c[nH]c(=O)c2cc(F)c(F)cc12)N(C)C(=O)Nc1ccnc(Cl)c1` (single isomer, unassigned) [Compound 419, 3-(2-Chloropyridin-4-yl)-1-(1-(6,7-difluoro-1-oxo-1,2-dihydroisoquinolin-4-yl)ethyl)-1-methylurea], for which the EC50 stood at 0.048 µM.
On the same count and under the same terms, in the case of `CC(c1c[nH]c(=O)c2cc(F)c(F)cc12)N(CCCO)C(=O)Nc1ccc(F)cc1` (single isomer, unassigned) [Compound 291, 1-(1-(6,7-Difluoro-1-oxo-1,2-dihydroisoquinolin-4-yl)ethyl)-3-(4-fluorophenyl)-1-(3-hydroxypropyl) urea] it was 4.6 µM.
Turning to `CC(c1c[nH]c(=O)c2cc(F)c(F)cc12)N(C)C(=O)Nc1cc(F)c(F)c(F)c1` (single isomer, unassigned) [Compound 415, 1-(1-(6,7-Difluoro-1-oxo-1,2-dihydroisoquinolin-4-yl)ethyl)-3-(3,4,5-trifluorophenyl)-1-methylurea], the EC50 was 0.021 µM.
Take `CC(C)CN(C(=O)Nc1ccc(F)cc1)C(C)c1c[nH]c(=O)c2c(F)cc(F)cc12` (single isomer, unassigned) [Compound 376, 1-(1-(6,8-Difluoro-1-oxo-1,2-dihydroisoquinolin-4-yl)ethyl)-3-(4-fluorophenyl)-1-isobutylurea]: the EC50 was determined as 0.007 µM.
Turning to `CC(c1c[nH]c(=O)c2c(F)cccc12)N(CCS(N)(=O)=O)C(=O)Nc1ccc(F)c(Cl)c1` (single isomer, unassigned) [Compound 397, 2-(3-(3-Chloro-4-fluorophenyl)-1-(1-(8-fluoro-1-oxo-1,2-dihydroisoquinolin-4-yl)ethyl)ureido) ethane-1-sulfonamide], the EC50 was 0.1 µM.
For `CC(c1c[nH]c(=O)c2cc(F)c(F)cc12)N(C)C(=O)Nc1ccc(F)c(C#N)c1` (single isomer, unassigned) [Compound 428, 3-(3-Cyano-4-fluorophenyl)-1-(1-(6,7-difluoro-1-oxo-1,2-dihydroisoquinolin-4-yl)ethyl)-1-methylurea], the half-maximal effective concentration (EC50) worked out at 1.6 µM.

The same test, now with this note: Hepatitis B virus, HepDE19, HepDE19 assay, inhibition of formation of rcDNA; read-out: DE-19bDNA EC50.
Regarding `C[C@@H](c1c[nH]c(=O)c2ccccc12)N(C)C(=O)Nc1ccc(F)c(Cl)c1` [Compound 13, 3-(3-Chloro-4-fluorophenyl)-1-methyl-1-(1-(1-oxo-1,2-dihydroisoquinolin-4-yl)ethyl)urea], the EC50 was 4.7 µM.
Turning to `O=C(NCc1c[nH]c(=O)c2ccccc12)Nc1ccc(F)c(Cl)c1` [Compound 8, 1-(3-Chloro-4-fluorophenyl)-3-((1-oxo-1,2-dihydroisoquinolin-4-yl)methyl)urea], the EC50 was determined as 6.8 µM.
Consider `CC(c1c[nH]c(=O)c2ccncc12)N(C)C(=O)Nc1ccc(F)c(Cl)c1` (stereo not drawn) [Compound 127, 3-(3-chloro-4-fluorophenyl)-1-methyl-1-(1-(1-oxo-1,2-dihydro-2,6-naphthyridin-4-yl)ethyl)urea], for which the EC50 was found to be 1 µM.
Turning to `Cc1cc(NC(=O)N(C)Cc2c[nH]c(=O)c3ccccc23)ccc1F` [Compound 5, 3-(4-Fluoro-3-methylphenyl)-1-methyl-1-((1-oxo-1,2-dihydroisoquinolin-4-yl)methyl)urea], the EC50 was found to be 0.49 µM.
The same measure, in the same setting: to `CCN(Cc1c[nH]c(=O)c2ccccc12)C(=O)Nc1ccc(F)c(Cl)c1` [Compound 9, 3-(3-Chloro-4-fluorophenyl)-1-ethyl-1-((1-oxo-1,2-dihydroisoquinolin-4-yl)methyl)urea] belongs 0.16 µM.

The same test, now with this note: Hepatitis B virus, HepDE19, read-out: DE-19bDNA EC50 (μM), HepDE19 assay, inhibition of formation of relaxed circular DNA (rcDNA), bDNA quantitation.
As to `CC(c1c[nH]c(=O)c2cc(F)c(F)cc12)N(C)C(=O)N[C@@H](C)c1ccccc1` (single isomer, unassigned) [Compound 475], the EC50 worked out at 6.1 µM.

The same test, now with this note: read-out: DE-19bDNA EC50; HepDE19 assay, inhibition of formation of rcDNA.
In the case of `COCCOCCN(C(=O)Nc1ccc(F)c(Cl)c1)C(C)c1c[nH]c(=O)c2ccccc12` (single isomer, unassigned) [Compound 124, 3-(3-Chloro-4-fluorophenyl)-1-(2-(2-methoxyethoxy)ethyl)-1-(1-(1-oxo-1,2-dihydroisoquinolin-4-yl)ethyl)urea], the EC50 amounted to 0.56 µM.

The same test, now with this note: read-out: DE-19bDNA EC50; HepDE19 assay, inhibition of formation of relaxed circular DNA (rcDNA), bDNA quantitation.
With `CC(c1c[nH]c(=O)c2cc(F)c(F)cc12)N(C)C(=O)Nc1ccccc1F` (single isomer, unassigned) [Compound 420, 1-(1-(6,7-Difluoro-1-oxo-1,2-dihydroisoquinolin-4-yl)ethyl)-3-(2-fluorophenyl)-1-methylurea], the EC50 stood at 0.74 µM.
On to `CC(c1c[nH]c(=O)c2c(F)c(F)ccc12)N(C)C(=O)Nc1cc(Cl)cc(Cl)c1` (single isomer, unassigned) [Compound 447, 3-(3,5-Dichlorophenyl)-1-(1-(7,8-difluoro-1-oxo-1,2-dihydroisoquinolin-4-yl)ethyl)-1-methylurea], for which the EC50 amounted to 6.5 µM.
